Source: patent publication US12239645B2, “Targeted dosing for the treatment of complement mediated disorders” (Achillion Pharmaceuticals, Inc., priority 2018, dated 2025)
≈ marks a conversion by molar mass, not a printed value.

Experiments:
[1] = Compound 2 administered to humans (diurnal metabolic pattern); format: in vivo, human
Text: This could not have been predicted prior to human administration of the drug.

[2] = tested on: complement alternative pathway (AP) activity; assay: MAD study: ex vivo serum AP hemolysis activity and PK-PD analysis; format: in vivo, human; details: Homo sapiens; sigmoidal model, multiple ascending dose, ex-vivo AP hemolysis, FIG. 12; read-out: modeled IC90 drug plasma concentration (90% inhibition level)
Description: Ex vivo serum AP hemolysis assays were conducted in 96-well microtiter plates divided into two parts, one for hemolysis and the other for serum background color subtraction. Briefly, a suspension of rabbit red blood cells (RBCs) was centrifuged at 800×g at 4° C. for 3 minutes and the supernatant was removed to get rid of the RBC debris. The RBC cell pellet was re-suspended gently with pre-chilled gelatin veronal buffer (GVB0) containing 10 mM MgEGTA to a density of 5×10^8 cells/mL. Other controls including buffer, spontaneous rabbit RBC lysis, 100% RBC lysis (in water), and normal serum control were set up alongside the test samples as well. Serum was placed in a 37° C. water-bath until mostly thawed and immediately transferred to ice bath. 20% serum was prepared with GVB0-MgEGTA buffer and kept at ice bath before testing. Reactions were carried out in a 96 well plate by mixing 50 μl of 20% serum with equal volume of GVB0-MgEGTA buffer and then quickly adding 20 μl of RBC suspension. The plate was shaken on a microtiter plate shaker for 5 seconds and then incubated at 37° C. for 30 minutes. Halfway during the incubation period, the plate was shaken for another 5 seconds as described above. At the end of the incubation, the plate was centrifuged at 800×g at 4° C. for 3 minutes to pellet the un-lysed rabbit RBCs. 80 μl of supernatant was removed carefully from all wells and transferred to a clear flat-bottom microtiter plate for the measurement of optical absorbance at 405 nm (A405) in a Molecular Devices Spectramax Plus plate reader. AP hemolysis in each well was calculated relative to the activity of the NHS reference sample formulas as follows: Hemolysis (%)=((Hm−Bk)−(Sp−Bf))/((NH−BkNH)−(Sp−Bf))×100%
where Hm=A405 in the hemolysis well, Bk=A405 in the corresponding background well, Sp=mean A405 in the spontaneous hemolysis wells, Bf=mean A405 in the buffer alone wells, NH=mean A405 in the reference NHS wells, and BkNH=mean A405 in the corresponding background wells.
The PK-PD relationship was evaluated using time-matched plasma Compound 1 concentrations and serum AP inhibition values by non-linear regression with GraphPad Prism (La Jolla, CA) using the following two models: • 1. The simple Emax model to determine the 50% effective concentration (EC50): Y=E0+Emax×X/(EC50+X) where X=plasma Compound 1 concentration, Y=percent inhibition in the corresponding serum sample, E0=0% inhibition (pre-dose AP activity), and Emax=100% inhibition. • 2. The four-parameter sigmoidal model to determine EC50 and the 90% effective concentration (EC90): Y=E0+(Emax−E0)/(1+10^((Log EC50−X)×HillSlope)) where X, Y, E0, and Emax are defined as above (Emax model) and HillSlope=the slope factor or Hill slope. Pharmacodynamic and Pharmacokinetic Results AP Activity Measured with AP Hemolysis
A multiple ascending dose (MAD) study of Compound 1 with two additional single-dose cohorts was also completed. […] Secondary objectives included evaluation of the pharmacokinetic (PK) profile and the relationship between Compound 1 PK and pharmacodynamic (PD) characteristics, that is, the inhibition of complement alternative pathway (AP) activity (PK/PD). In the MAD study, multiple-dose pharmacokinetics and pharmacodynamics of Compound 1 were evaluated in four dose groups administered Compound 1 (40, 80, 120 and 200 mg BID) in the fasted state for 14-days (Table 3). Eight subjects received active drug in each group; eight subjects received placebo in the first dose group (40 mg) and two subjects received placebo in each of the other three dose groups. Two additional cohorts were administered Compound 1 at single doses of 240 mg (fasted subjects) and 120 mg (fed subjects) (Table 3). The two single-dose cohorts each comprised six subjects receiving active drug and two subjects receiving placebo. […]

For `CC(=O)c1nn(CC(=O)N2C[C@H](F)C[C@H]2C(=O)Nc2cccc(Br)n2)c2ccc(-c3cnc(C)nc3)cc12` [Compound 2, (2S,4R)-1-(2-(3-acetyl-5-(2-methylpyrimidin-5-yl)-1H-indazol-1-yl)acetyl)-N-(6-bromopyridin-2-yl)-4-fluoropyrrolidine-2-carboxamide], the diurnal metabolic pattern [1] was “does not exhibit a diurnal metabolic pattern”.
With `CC(=O)c1nn(CC(=O)N2C[C@H](F)C[C@H]2C(=O)Nc2cccc(Br)n2)c2ccc(-c3cnc(C)nc3)cc12` [Danicopan, reference compound] the IC90 [2] was 0.235 µg/mL (≈ 0.405 µM).
